Test results as given in publication PMC5234074 (2017).

How the values were obtained:
[1] = system: EC-100 (thiC 1-100 nascent transcript) (RNA, riboswitch) UAAUUUCUUGUCGGAGUGCCUUAACUGGCUGAGACCGUUUAUUCGGGAUCCGCGGAACCUGAUCAGGCUAAUACCUGCGAAGGGAACAAGAGUUAAUCUG; test: RNase H cleavage of stalled elongation complex, P1 probe; conditions: 20 mM MgCl2, 20 mM NaCl (transcription); 20 mM MgCl2, 100 mM KCl (RNase H step); Tris-HCl pH 8.0, 37 °C; 10 μM TPP; cleavage ratio 1.3; RNAP bound
[2] = system: 143 nt thiC transcript (without RNAP) (RNA, riboswitch) UAAUUUCUUGUCGGAGUGCCUUAACUGGCUGAGACCGUUUAUUCGGGAUCCGCGGAACCUGAUCAGGCUAAUACCUGCGAAGGGAACAAGAGUUAAUCUGCUAUCGCAUCGCCCCUGCGGCGAUCGUCUCUUGCUUCAUCCGU; test: RNase H cleavage of free transcript; conditions: 20 mM MgCl2, 20 mM NaCl (transcription); 20 mM MgCl2, 100 mM KCl (RNase H step); Tris-HCl pH 8.0, 37 °C; 10 μM TPP; cleavage ratio higher than 158 nt transcript
[3] = system: EC-108 (thiC 1-108 nascent transcript) (RNA, riboswitch) UAAUUUCUUGUCGGAGUGCCUUAACUGGCUGAGACCGUUUAUUCGGGAUCCGCGGAACCUGAUCAGGCUAAUACCUGCGAAGGGAACAAGAGUUAAUCUGCUAUCGCA; test: RNase H cleavage of stalled elongation complex, P1 probe; conditions: 20 mM MgCl2, 20 mM NaCl (transcription); 20 mM MgCl2, 100 mM KCl (RNase H step); Tris-HCl pH 8.0, 37 °C; 10 μM TPP; cleavage ratio 6.7; RNAP bound
[4] = system: EC-207 (thiC 1-207 nascent transcript) (RNA, riboswitch) UAAUUUCUUGUCGGAGUGCCUUAACUGGCUGAGACCGUUUAUUCGGGAUCCGCGGAACCUGAUCAGGCUAAUACCUGCGAAGGGAACAAGAGUUAAUCUGCUAUCGCAUCGCCCCUGCGGCGAUCGUCUCUUGCUUCAUCCGUCGUCUGACAAGCCACGUCCUUAACUUUUUGGAAUGAGCUAUGUCUGCAACAAAACUGACCCGCC; test: as above; conditions: 20 mM MgCl2, 20 mM NaCl (transcription); 20 mM MgCl2, 100 mM KCl (RNase H step); Tris-HCl pH 8.0, 37 °C; 10 μM TPP; RNAP bound; sensing partially recovered
[5] = system: 158 nt thiC transcript (without RNAP) (RNA, riboswitch) UAAUUUCUUGUCGGAGUGCCUUAACUGGCUGAGACCGUUUAUUCGGGAUCCGCGGAACCUGAUCAGGCUAAUACCUGCGAAGGGAACAAGAGUUAAUCUGCUAUCGCAUCGCCCCUGCGGCGAUCGUCUCUUGCUUCAUCCGUCGUCUGACAAGCCAC; test: RNase H cleavage of free transcript; conditions: 20 mM MgCl2, 20 mM NaCl (transcription); 20 mM MgCl2, 100 mM KCl (RNase H step); Tris-HCl pH 8.0, 37 °C; 10 μM TPP; cleavage ratio 3.4; less efficient than EC-158
[6] = system: EC-197 (thiC 1-197 nascent transcript) (RNA, riboswitch) UAAUUUCUUGUCGGAGUGCCUUAACUGGCUGAGACCGUUUAUUCGGGAUCCGCGGAACCUGAUCAGGCUAAUACCUGCGAAGGGAACAAGAGUUAAUCUGCUAUCGCAUCGCCCCUGCGGCGAUCGUCUCUUGCUUCAUCCGUCGUCUGACAAGCCACGUCCUUAACUUUUUGGAAUGAGCUAUGUCUGCAACAAAA; test: RNase H cleavage of stalled elongation complex, P1 probe; conditions: 20 mM MgCl2, 20 mM NaCl (transcription); 20 mM MgCl2, 100 mM KCl (RNase H step); Tris-HCl pH 8.0, 37 °C; 10 μM TPP; RNAP bound; sensing partially recovered

For `Cc1ncc(C[n+]2csc(CCOP(=O)(O)OP(=O)(O)O)c2C)c(N)n1`, the binding [1] was “weak”, the binding [2] was “yes” and the binding [3] was “yes”. The binding [4] was “yes”, the binding [5] was “yes” and the binding [6] was “yes”.
